Legend:
B16-F0 melanoma = assay: Calcein AM cytotoxicity, B16-F0; assay type: cell-based; details: Mus musculus, B16F0, 72 h, read-out: IC 50, B16-F0
From the text: One of the parameters used, as the basis for cytotoxicity assays, is the metabolic activity of viable cells. For example, a microtiter assay, which uses the Calcein AM, is now widely used to quantitate cell proliferation and cytotoxicity. For instance, this assay is used in drug screening programs and in chemosensitivity testing. Because only metabolically active cells cleave Calcein AM, these assays detect viable cells exclusively. The quantity of reduced Calcein AM corresponds to the number of vital cells in the culture.
Human T-lymphoblastic leukemia cell line CEM; promyelocytic HL-60 and monocytic U937 leukemias; breast carcinoma cell lines MCF-7, BT549, MDA-MB-231; glioblastoma U87MG cells; cervical carcinoma cells HELA; sarcoma cells U2OS and Saos2; hepatocellular carcinoma HepG2; mouse fibroblasts NIH3T3; mouse immortalized bone marrow macrophages B2.4 and B10A.4; P388D1 and L1210 leukemia; B16 and B16F10 melanomas were used for routine screening of compounds. The cells were maintained in Nunc/Corning 80 cm^2 plastic tissue culture flasks and cultured in cell culture medium (DMEM with 5 g/l glucose, 2 mM glutamine, 100 U/ml penicillin, 100 μg/ml streptomycin, 10% fetal calf serum and sodium bicarbonate).
The cell suspensions that were prepared and diluted according to the particular cell type and the expected target cell density (2.500-30.000 cells per well based on cell growth characteristics) were added by pipette (80 μl) into 96/well microtiter plates. Inoculates were allowed a pre-incubation period of 24 hours at 37° C. and 5% CO2 for stabilisation. Four-fold dilutions of the intended test concentration were added at time zero in 20 μl aliquots to the microtiter plate wells. Usually, test compound was evaluated at six 4-fold dilutions. In routine testing, the highest well concentration was […], but it can be the matter of change dependent on the agent. All drug concentrations were examined in duplicates. Incubations of cells with the test compounds lasted for 72 hours at 37° C., in 5% CO2 atmosphere and 100% humidity. At the end of incubation period, the cells were assayed by using the Calcein AM. Ten microliters of the stock solution were pipetted into each well and incubated further for 1 hours. Fluorescence (FD) was measured with the Labsystem FIA Reader Fluoroscan Ascent (UK). The tumour cell survival (GI50) was calculated using the following equitation: TCS═(FDdrug exposed well/mean FDcontrol wells)×100%. The GI50 value, the drug concentration lethal to 50% of the tumour cells, was calculated from the obtained dose response curves (FIG. 1).

MCF-7 cell line = assay: Apoptosis in MCF-7, Anexin FITC V / propidium iodide staining; assay type: cell-based, human; details: FIG. 3; 6 h, 20 μM apoptotic cells
Description: A MCF-7, apoptotic cells: 6 h, 12, 20 μM, B MCF-7, secondary necrotic cells (i.e. necrosis following apoptosis), 12 h, 12, 40 μM; C MCF-7, necrotic cells, 24 h, 12, 40 μM. Anexin FITC V (Mol. Probes) and propidium iodide staining: anexin—green, PI—red.
Analysed using “Olympus image analysis” after treatment of MCF-7 tumour cells by 6-(2-hydroxy-3-methoxybenzylamino)purine. A,B—control cells without treatment; C,D—apoptotic cells (condensation of chromatin); A,C—fluorescence microscopy; B,D—fluorescence image analysis.

[1] = system: human diploid fibroblasts (HCA cells); assay: Senescence, beta-galactosidase staining of human diploid fibroblasts; assay type: cell-based
How it was run: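 HCA fibroblasts at passages 25, 45 and 80 were fixed for 5 min at room temperature in 2% formaldehyde/0.2% glutaraldehyde. They were then incubated at 37 °C without CO2 for 1 to 16 hours with X-gal 1 mg/ml, 5 mM ferri- and ferrocyanide and 2 mM MgCl2 in citric/phosphate buffer, pH 6.0. Blue-stained cells were scored.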

[2] = system: Triticum aestivum cv. Hereward leaf tips; assay: Retention of chlorophyll in excised wheat leaf tips; assay type: in vivo; details: chlorophyll retention at the concentration with highest activity
How it was run: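 Tips of first leaves from 7-day wheat (cv. Hereward) seedlings kept on compound solutions (10^−8 to 10^−4 M, from DMSO stock) for 96 h in the dark at 25 °C. Chlorophyll extracted in 80% ethanol at 80 °C and read at 665 nm. Activity at the best concentration expressed relative to 10^−4 M BAP (100%), five replicates.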

[3] = system: Amaranthus caudatus cotyledon/hypocotyl explants; assay: Amaranthus bioassay, betacyanin content; assay type: in vivo; details: betacyanin content at the concentration with highest activity

Which IC50 (B16-F0 melanoma) does the source give for `COc1cccc(CNc2ncnc3nc[nH]c23)c1O` [6-(2-hydroxy-3-methoxybenzylamino)purine] here?
The IC50 was 69 µM.

What about the “apoptosis in MCF-7 tumour cells” value (MCF-7 cell line) of the same compound?
The value was “induced apoptosis”.

What about the “SENESCENT CELLS (%) HCA25” value ([1]; passage 25) of the same compound?
Its value is 4%.

What about the “SENESCENT CELLS (%) HCA45” value ([1]; passage 45) of the same compound?
Its value is 3%.

And the “SENESCENT CELLS (%) HCA80” value ([1]; passage 80)?
The value was 20%.

And the “Activity (%) [10^−4 mol · l^−1 BAP = 100%]” value [2]?
Its value is 34 (±5) %.

What about the “activity (%) [10^−5 mol · l^−1 BAP = 100%]” value [3] of the same compound?
Its value is 19 (±3) %.
